This is an account of results in US20260337229A1 (Seattle Children's Hospital (d/b/a Seattle Children's …, priority 2022, published 2026).

Where two headings read alike, the source gives them in different places. Residues, ends and D or L forms follow the SMILES beside them.

Series [1] in a line: Dose escalation study in DIO rats. Format: in vivo, male DIO Sprague Dawley rats. The source says: Male DIO Sprague Dawley rats (n=4) were fed 60% HF diet (formula: D12492; Research Diets, Inc., New Brunswick, NJ, USA; 5.21 kcal/g) for 16 weeks prior to the start of the study. Rats were changed to being singly housed and allowed to acclimate for at least one week prior to the start of this study. Animals averaged 844.15 Z 99.95 g at baseline. Baseline measures of body weight, food intake, and water intake were taken for 6 days before drug administration began. Doses for the dose escalation study included 1, 2, 5, 10, 20, 50, and 100 nmol/kg. Body weight, food and water intake were assessed just prior to the start of the dark cycle. […] In certain embodiments, the greatest anorectic effect achieved with ASK1476 occurred at the 300 nmol/kg/d dose yielding a ~34% reduction in caloric intake while ASK2131 dosed at 2 nmol/kg/d yielded a ~55% reduction in caloric intake.

The conditions of series [2]: in words; cited from earlier work.
A short description of series [3]: 22-day long-term study in DIO rats (body weight, food and water intake). Format: in vivo, male Sprague Dawley rats. The text has this: For studies utilizing a DIO rat model, male Sprague Dawley rats (CD-IGS rats, strain 001; approximately 4 weeks of age; 51-75 g) purchased from Charles River Laboratories (Wilmington, MA, USA). These rats were fed a diet of 60% calories from fat (Formula: D12492; Research Diets, Inc., New Brunswick, NJ, USA; 5.21 kcal/g) for 4.5 to 6 months prior to the start of the study to induce obesity. For studies utilizing lean rats, male Sprague Dawley rats (CD-IGS rats, strain 001; 226-250 g) purchased from Charles River Laboratories (Wilmington, MA, USA). All rats had ad libitum access to food and water and were kept on a 12 h light/12 h dark cycle. Animals were individually housed in a temperature (22±1° C.) and humidity (57±4%) controlled room. All body weight measurements were taken just prior to the start of the dark cycle.
(§1) Male Sprague Dawley rats were fed 60% HF diet (D12492; Research Diets, Inc; New Brunswick, NJ; 5.21 kcal/g) for 16 weeks prior to the start of the study. Rats were then singly house in BioDAQ cages (Research Diets, Inc.; New Brunswick, NJ) and allowed to acclimate to their new environment for 10 days. Baseline measures of body weight, food intake and water intake were taken for one week to balance the groups and create feeding pairs. Each group (n=6 animals/group) averaged 714.47±81.6 g at baseline (Table 3).
(§2) Effects of ASK2131 were compared to a vehicle-treated group, OXT-treated group, as well as a pair-fed control group. Three days of baseline measures were taken before subcutaneous treatment administration began on day 4 of the study. Assessments were made to body weight, food intake and water intake. ASK2131 was administered at 50 nmol/kg throughout the entire study period. […] OXT-treated animals were started at 50 nmol/kg dose for two days, followed by 150 nmol/kg, then 300 nmol/kg, until ending at 600 nmol/kg for the remainder of the study.

The nature of series [4]: Blood parameters after 22-day treatment of DIO rats. Format: in vivo, male Sprague Dawley rats. The note with it: 22 days sc, mean ± SEM, OXT n=4.
Excerpt: as §1, §2
Cardiac puncture was used to collect blood for analysis 2 h post final injection. Commercially available enzyme-linked immunosorbent assays (ELISA) were used for quantitative assessment of leptin (cat. #EZRL-83K; MilliporeSigma, Burlington, MA, USA), insulin (cat. #EZRMI-13K; MilliporeSigma, Burlington, MA, USA), and adiponectin (cat. #EZRAPD-62K MilliporeSigma, Burlington, MA, USA). Serum samples were diluted 1:500 for the adiponectin ELISA using the sample diluent provided with the kit. All ELISAs were completed following the manufacturers recommendations. Levels of glucose, cholesterol (total, HDL, and calculated LDL), triglycerides, ALT, and AST were determined in the serum on a Modular P chemistry analyzer (Roche Diagnostics, Risch-Rotkreuz, Switzerland) by the University of Washington Nutrition and Obesity Research Center's Analytic Core (Seattle, WA, USA).

The conditions of series [5]: iv, rat; marked [2]; cited from earlier work.
For series [6] the following is noted: sc, mouse, marked [2], cited from earlier work.
The conditions of series [7]: cited from earlier work.
The conditions of series [8]: cited from earlier work. The source holds these as a separate data set.
The test system of series [9] is amygdala activation. The note with it: 24 IU, but not lower (12 IU) or higher (48 IU) doses; in words; cited from earlier work.
The conditions of series [10]: intranasal; in words; cited from earlier work.
Series [11] relates to OXT receptors. The note with it: prolonged OXT treatment, in words, cited from earlier work.
For series [12] the following is noted: in words; cited from earlier work. This is another data set of the same source.
The conditions of series [13]: peripheral administration; in words; cited from earlier work.
Setting [14] is: ELISA, 2 h post final injection.

As to `CCCCCCCCCCCCCCCC(=O)NCCOCCOCCOCCOCCOCCOCCOCCOCCC(=O)NCCCC[C@H](NC(=O)CNC(=O)[C@@H]1CSSC[C@H](N)C(=O)N[C@@H](Cc2ccc(O)cc2)C(=O)N[C@@H]([C@@H](C)CC)C(=O)N[C@@H](CCC(N)=O)C(=O)N[C@@H](CC(N)=O)C(=O)N1)C(=O)NCC(N)=O` [ASK1476] (HELM PEPTIDE1{C.Y.I.Q.N.C.G.K.G.[am]}|PEPTIDE2{[CCCCCCCCCCCCCCCC(=O)[*:2]].[O=C(CCOCCOCCOCCOCCOCCOCCOCCOCCN[*:1])[*:2]]}$PEPTIDE1,PEPTIDE2,8:R3-2:R2|PEPTIDE1,PEPTIDE1,1:R3-6:R3$$$V2.0), the “reduction in caloric intake, greatest anorectic effect” value in series [1] (300 nmol/kg/d) is given as ~ 34%. The “response in a prior study” value in series [2] is given as “U-shaped response”.
Broadly, the Vd is the apparent volume that relates the amount in the body to the concentration in plasma or blood. As usually defined, the Tmax is the time from dosing to the highest level. In general, Cmax refers to the peak of the concentration-time curve. `CC[C@H](C)[C@@H]1NC(=O)[C@H](Cc2ccc(O)cc2)NC(=O)[C@@H](N)CSSC[C@@H](C(=O)N2CCC[C@H]2C(=O)N[C@@H](CC(C)C)C(=O)NCC(N)=O)NC(=O)[C@H](CC(N)=O)NC(=O)[C@H](CCC(N)=O)NC1=O` [OXT] displayed a Post-treatment body weight in series [3] (22 days sc, ASK2131 50 nmol/kg, OXT titrated 50 to 600 nmol/kg, mean ± SEM) of 719 ± 20 g. In addition, in series [3] (22 days sc, ASK2131 50 nmol/kg, OXT titrated 50 to 600 nmol/kg, mean ± SEM, superscripts b: p<0.01, c: p<0.001 vs vehicle, d: p<0.001 vs OXT), the “% change in body weight” value is reported as 0.1 ± 1 ^b %. Besides, in series [3] (OXT titrated to 600 nmol/kg, 95% CI 0.2550 to 40.59, p=0.0464, in words), the “reduction in food intake compared to vehicle-treated group” value was “did not exhibit a significant reduction in food intake”. Also, the “weight loss vs. vehicle” value in [3] (end of treatment, OXT titrated to 600 nmol/kg) is 5%. For the same molecule, in series [3] (treatment day 9, after 8 days, OXT titrated, 95% CI −5.80 to −0.43%, p=0.014), the “body weight, PMD vs vehicle” value was −3.12%. Besides, in series [4] (Calculated LDL = Cholesterol − (HDL + Triglycerides/5)), the “LDL, calculated” value is listed as 22 ± 2 mg/dL. Besides, in series [4] (setting [14]), the Adiponectin worked out at 60.8 ± 3.9 ng/mL, the Insulin is 7.2 ± 2.1 ng/mL and the Leptin was 54.9 ± 7.9 ng/mL. In [4] (serum 2 h post final injection), the ALT was found to be 40 ± 5 U/L, the AST came out at 128 ± 22 U/L, the Glucose is reported as 203 ± 13 mg/dL and the HDL is given as 25 ± 2 mg/dL. In series [4] (serum 2 h post final injection), this molecule registered a Triglycerides of 145 ± 7 mg/dL. Besides, the Cholesterol in [4] (serum 2 h post final injection, superscript b: p<0.01 vs vehicle) came out at 76 ± 3 mg/dL. In addition, the “reduction in caloric intake, maximum effect” value in [1] (1200 nmol/kg/d) is ~ 36%. Moreover, in series [5], the CLplasma is 1.03 L/h/kg, the T1/2 is 7.2 min and the Vd is 0.085 L/kg. Also, in series [6], the T1/2 is 30 min, the Tmax is 15 min and the “free Cmax” value was 0.191 µM. Moreover, in series [6] (total), the maximum concentration (Cmax) is 0.216 µM. Also, in series [7] (in words), the “weight loss through energy expenditure” value was “elicits weight loss through increases in energy expenditure”. Also, in series [7] (one month: two weeks at 0.2 mg/kg then two weeks at 0.4 mg/kg), the “change in body weight” value is recorded as 3.3%. The “change in body weight” value in [8] (after a single dose of 1000 μg (1000 nmol)) is 0.01%. The “decrease in food intake” value in series [8] (single injection of 1000 μg (1000 nmol)) was 12%. The amygdala activation result in series [9] was “significant decrease in amygdala activation”. In [10], the “body weight in obese humans” value is recorded as “shown to reduce body weight in obese humans” and the “dose response in human trials” value is “U-shaped response”. Besides, the “desensitization of the OXT receptors” value in series [11] (in vitro) was “shown to promote desensitization of the OXT receptors in vitro”. In addition, the OXTR binding result in [11] is reported as “reductions of OXTR binding”. Also, in series [12], the blood-brain barrier passage result is “does not cross the blood-brain barrier”. Also, the “food intake, energy expenditure, weight gain” value in series [13] is “reduces food intake, enhances energy expenditure, and prevents or reduces weight gain”.
